Assays:
[1] = Tmax in male ICR-CD1 mouse plasma at 80 mg/kg, po; assay type: ADME, organism-based
Plasmodium yoelii = assay: In vivo antiplasmodial activity against asexual blood-stage (ABS) Plasmodium yoelii MRA-428 infected in 4-day suppression CF1 mouse model assessed as reduction in parasitemia treated 24 hrs post infection daily measured on day 4; assay type: functional
[2] = AUC(0 to infinity) in male ICR-CD1 mouse liver at 80 mg/kg, po; assay type: ADME, organism-based
Plasmodium cynomolgi [3] = assay: (§1) Antiplasmodial activity against schizont Plasmodium cynomolgi B strain infected in Macaca mulatta hepatocytes incubated with sporozoite containing salivary gland homogenate obtained from dissected Anopheles dirus mosquitoes (infected with Plasmodium cynomolgi B strain) treatment started on day 4 post infection and continued daily for 4 days into fresh changed media until day 8 assessed as Liver stage (LS) activity by measuring radical cure mode by immunofluorescent staining analysis; assay type: functional, organism-based; settings: Hepatocyte
Plasmodium falciparum [4] = assay: Antiplasmodial activity against asexual blood-stage (ABS) ATV-resistant clinical isolate Plasmodium falciparum Tm90-C2B infected in human erythrocytes assessed as reduction in fluorescence measured after 72 hrs by Malaria SYBR Green I-based Fluorescence (MSF) assay; assay type: functional, organism-based; settings: Erythrocyte
[5] = as §1, with “Selectivity index, ratio of CC50 for Macaca mulatta hepatocytes to IC50 for antiplasmodial” for “Antiplasmodial”, “hypnozoite” for “schizont”, “prophylactic” for “radical cure”; assay type: toxicity, cell-based; settings: rhesus monkey, read-out: Selectivity Index
[6] = AUCextrap in male ICR-CD1 mouse liver at 80 mg/kg, po; assay type: ADME, organism-based
[7] = as §1, with “Selectivity index, ratio of CC50 for Macaca mulatta hepatocytes to IC50 for antiplasmodial” for “Antiplasmodial”, “prophylactic” for “radical cure”; assay type: toxicity, cell-based; settings: rhesus monkey, read-out: Selectivity Index
Plasmodium falciparum [8] = assay: Antiplasmodial activity against asexual blood-stage (ABS) MDR Plasmodium falciparum Dd2 infected in human erythrocytes assessed as reduction in fluorescence measured after 72 hrs by Malaria SYBR Green I-based Fluorescence (MSF) assay; assay type: functional, organism-based; settings: Dd2, Erythrocyte
Plasmodium falciparum [9] = assay: Ex vivo antiplasmodial activity against clinical isolate Plasmodium falciparum isolated from Ugandan measured after 72 hrs by growth inhibition assay; assay type: functional, organism-based
[10] = mouse, microsomes, 1 h
Plasmodium falciparum [11] = assay: Antiplasmodial activity against asexual blood-stage (ABS) CQ-sensitive Plasmodium falciparum D6 infected in human erythrocytes assessed as reduction in fluorescence measured after 72 hrs by Malaria SYBR Green I-based Fluorescence (MSF) assay; assay type: functional, organism-based; settings: D6, Erythrocyte
[12] = Cmax in male ICR-CD1 mouse liver at 80 mg/kg, po; assay type: ADME, organism-based
Plasmodium berghei [13] = assay: In vivo antiplasmodial activity against luciferase expressing liver stage Plasmodium berghei ANKA MRA-868 sporozoites infected in Albino C57BL/6 mouse model assessed as protection at 10 mg/kg, po daily measured 24 to 72 hrs by real-time In Vivo Imaging System (IVIS); assay type: functional; settings: time lower 24.0 hrs, time upper […]
[14] = Toxicity in CF1 mouse infected with asexual blood-stage (ABS) Plasmodium yoelii MRA-428 assessed as clinical toxicity at 0.3 to 30 mg/kg, po treated 24 hrs post infection measured after 4 days; assay type: organism-based; settings: in vivo, dose 0.3-30 mg/kg
Plasmodium cynomolgi [15] = assay: as §1, with “hypnozoite” for “schizont”, “prophylactic” for “radical cure”; assay type: functional, organism-based; settings: Hepatocyte
[16] = Toxicity in CF1 mouse infected with asexual blood-stage (ABS) Plasmodium yoelii MRA-428 assessed as behavioural change at 0.3 to 30 mg/kg, po treated 24 hrs post infection measured after 4 days; assay type: organism-based; settings: in vivo, dose 0.3-30 mg/kg
[17] = Apparent oral clearance in male ICR-CD1 mouse liver at 80 mg/kg, po; assay type: ADME, organism-based
Plasmodium cynomolgi [18] = assay: as §1, with “hypnozoite” for “schizont”; assay type: functional, organism-based; settings: Hepatocyte
[19] = AUCextrap in male ICR-CD1 mouse plasma at 80 mg/kg, po; assay type: ADME, organism-based
Hepatocyte = assay: Cytotoxicity against Macaca mulatta hepatocytes assessed as cell viability measured after 48 hrs by MTT assay; assay type: toxicity, cell-based; settings: rhesus monkey, 48 h
[20] = Half life in male ICR-CD1 mouse liver at 80 mg/kg, po; assay type: ADME, organism-based
[21] = AUClast in male ICR-CD1 mouse liver at 80 mg/kg, po; assay type: ADME, organism-based
[22] = human, microsomes, 1 h
Plasmodium cynomolgi [23] = assay: as §1, with “prophylactic” for “radical cure”; assay type: functional, organism-based; settings: Hepatocyte
HepG2 = assay: Cytotoxicity against human HepG2 cells assessed as cell viability measured after 48 hrs by MTT assay; assay type: functional, cell-based; settings: HepG2, 48 h
Plasmodium berghei [24] = assay: In vivo antiplasmodial activity against luciferase expressing liver stage Plasmodium berghei ANKA MRA-868 sporozoites infected in Albino C57BL/6 mouse model assessed as protection at 4 mg/kg, po daily measured 24 to 72 hrs by real-time In Vivo Imaging System (IVIS); assay type: functional, organism-based; settings: time lower 24.0 hrs, time upper […]
[25] = as §1, with “Selectivity index, ratio of CC50 for Macaca mulatta hepatocytes to IC50 for antiplasmodial” for “Antiplasmodial”, “hypnozoite” for “schizont”; assay type: toxicity, cell-based; settings: rhesus monkey, read-out: Selectivity Index
[26] = as §1, with “Selectivity index, ratio of CC50 for Macaca mulatta hepatocytes to IC50 for antiplasmodial” for “Antiplasmodial”; assay type: toxicity, cell-based; settings: rhesus monkey, read-out: Selectivity Index

What does the source list for `O=c1c2cc(F)c(Oc3ccc(OC(F)(F)F)cc3)cc2[nH]c2cc(Cl)cc(F)c12`?
Tmax [1]: 4 h; ED50 (Plasmodium yoelii): 0.16 mg/kg; ED90 (Plasmodium yoelii): 0.3 mg/kg; AUC(0-inf) [2]: 41300 ng·h/mL; IC50 (Plasmodium cynomolgi [3]): 340 nM; IC50 (Plasmodium falciparum [4]): 0.475 nM; selectivity ratio at 96 h [5]: 3.62; AUC [6]: 3.14%; selectivity ratio at 96 h [7]: 14.5; IC50 (Plasmodium falciparum [8]): 0.00042 nM; IC50 (Plasmodium falciparum [9]): 0.957 nM; CLH [10]: 16.1 µL/min/mg; IC50 (Plasmodium falciparum [11]): 0.00074 nM; Cmax [12]: 7980 ng/mL; Activity (Plasmodium berghei [13]): Not active; Out Of 5 - 0 Mouse Cured; Activity [14]: Non-toxic; IC50 (Plasmodium cynomolgi [15]): 160 nM; Activity [16]: Non-toxic; CL/F [17]: 1.05 mL/min/kg; IC50 (Plasmodium cynomolgi [18]): 560 nM; AUC [19]: 64.6 ng·h/mL; CC50 (Hepatocyte): 580 nM; half-life [20]: 20.9 h; AUC(0-t) [21]: 40000 ng·h/mL; t1/2 [22]: > 1 h; IC50 (Plasmodium cynomolgi [23]): 40 nM; IC50 (HepG2): > 200000 nM; Activity (Plasmodium berghei [24]): Not active; Out Of 5 - 0 Mouse Cured; selectivity ratio at 96 h [25]: 1.04; selectivity ratio at 96 h [26]: 1.71
